Measured values: US12351555B2, “Process for synthesizing apremilast” (AMGEN INC., priority 2021, dated 2025)

Assay: Moisture sorption analysis (DVS) of crystal Form B of apremilast
Format: physicochemical
From the text: FIG. 3B depicts a representative DVS plot of crystal Form B of apremilast.
The crystalline apremilast formed in the disclosed processes can be any crystalline form. Various crystalline apremilast forms are described in detail in PCT Publication No. WO 2009/120167, the disclosure of which is incorporated by reference in its entirety. In various embodiments, the crystalline apremilast formed by the processes disclosed herein can be Form A, Form B, or Form F. In some cases, the crystalline apremilast is Form B. Form B may be characterized by X-ray powder diffraction analysis. In certain embodiments, Form B is characterized by XRPD peaks located at one, two, three, four, five, six, seven, eight, nine, ten, eleven or twelve of the following approximate positions: 10.1, 12.4, 13.5, 15.7, 16.3, 18.1, 20.7, 22.5, 24.7, 26.2, 26.9, 29.1 degrees 2θ. […] In certain embodiments, Form B may be characterized by thermal analysis. In certain embodiments, Form B is characterized by a DSC plot comprising an endothermic event with an onset temperature of about 154° C. In certain embodiments, Form B is characterized by a TGA plot comprising a mass loss of less than about 1%, e.g., about 0.25%, of the total mass of the sample upon heating from about 25° C. to about 140° C. […] In certain embodiments, Form B is anhydrous. In certain embodiments, Form B is unsolvated. In certain embodiments, Form B may be characterized by moisture sorption analysis. […] In certain embodiments, mass gained upon adsorption is lost when the RH is decreased back to about 0% RH.

SMILES: CCOc1cc(C(CS(C)(=O)=O)N2C(=O)c3cccc(NC(C)=O)c3C2=O)ccc1OC (single isomer, unassigned; (+)) [Form B, (+)-2-[1-(3-ethoxy-4-methoxyphenyl)-2-methylsulfonylethyl]-4-acetylaminoisoindoline-1,3-dione]
- stability with respect to humidity: stable with respect to humidity
- XRPD pattern following the adsorption/desorption analysis (after adsorption/desorption analysis): substantially unchanged
- hygroscopicity (moisture sorption analysis): substantially nonhygroscopic
